In patent publication US20250082674A1, “METHODS OF TREATING COPPER METABOLISM-ASSOCIATED DISEASES OR DISORDERS” (priority 2021, published 2025):

Columns and labels:
[1] = system: patients with Wilson disease (WD); assay: Study 301: Clinical Global Impression scales (CGI-I, CGI-S); assay type: in vivo, human
Description: Clinical Global Impression-[…]: The Clinical Global Impression (CGI) rating scales were commonly used measures of symptom severity, treatment response, and the efficacy of treatments in treatment studies of adult and pediatric patients with mental disorders.
The Clinical Global Impression-Severity scale (CGI-S) is a 7-point scale that requires the clinician to rate the severity of the patient's illness at the time of assessment, relative to the clinician's past experience with patients who have the same diagnosis. Considering total clinical experience, a patient was assessed on severity of illness at the time of rating as: 1, normal, not at all ill; 2, borderline ill; 3, mildly ill; 4, moderately ill; 5, markedly ill; 6, severely ill; or 7, extremely ill.
While transformed CGI-I (TCGI-I) assesses how the WD patients condition changed compared to baseline, CGI-I may indicate the overall clinical improvement of the patients in the study compared to baseline for each treatment arm.

[2] = system: patients with Wilson disease (WD); assay: Study 301: Unified Wilson Disease Rating Scale (UWDRS Parts II, III); assay type: in vivo, human
Procedure: The UWDRS scoring system was developed specifically for the motor and movement disorders associated with chronic copper neurotoxicity in WD. Some individual items/subscales of the UWDRS Part III (arising from a chair, gait, handwriting, and speech) in addition to the UWDRS Parts I, II, and III overall, were assessed to further define the range of burdensome signs and symptoms of WD, so as to further understand the assessment of treatment effects on patients with WD. The UWDRS scores for consciousness (Part I) and abnormal neurologic examination findings (Part III) will be determined by a trained neurologist rater who is blinded to study treatment randomization. These scores were used to provide a rigorous dataset for evaluating changes from baseline.
Unified Wilson Disease Rating Scale (Parts I, II, and III): The UWDRS is a clinical rating scale designed to evaluate the neurological manifestations of WD that generally can be divided into 3 movement disorder syndromes: dystonic, ataxic, and Parkinsonian syndrome. The UWDRS comprises 3 parts: UWDRS Part I (level of consciousness, item 1), UWDRS Part II (a patient-reported review of daily activity items [disability], items 2 to 11), and UWDRS Part III (a detailed neurological examination, items 12 to 34).
The UWDRS Part I and Part III were assessed by a neurologist who is blinded to the treatment randomization, while UWDRS Part II may be reported to a non-blinded member of the study team by the patient, family member, or caregiver. The UWDRS has not been formally evaluated in adolescents. However, the components of Part I (level of consciousness), Part II (patient or caregiver-reported disability) and Part III (neurologic examination findings) were not fundamentally different between adults and adolescents. Patients aged 12 years and older were expected to be able to comply with UWDRS assessments.
There were trends toward stability/improvement for both treatment groups. […] As approximately 50% of patients had baseline UWDRS scores of 0, and those patients that did have scores greater than zero were relatively low in the respective UWDRS Part II (score range: 0-40) and UWDRS Part III (score range: 0-175) scale range, there was little room for improvement.

[3] = Study 301, patients symptomatic at baseline, Cohort 1
[4] = Study 301, patients symptomatic at baseline, Cohort 2
[5] = Study 301, patients symptomatic at baseline, Overall

Bis-choline tetrathiomolybdate [BC-TTM]
CGI-I scores at week 48 versus SoC ([1]; Study 301, FIG. 22): improvements
CGI-S (1-7, 1 is normal), Change from Baseline at 48 weeks, Mean ([1]; Study 301, Full Analysis Set): −0.5
CGI-S, Difference at 48 weeks, LSM (SE), BC-TTM vs SoC ([1]; Study 301, Full Analysis Set): −0.2 (0.13)
T-CGI-I (−3 to 3, −3 is very much improved) at 48 weeks, Mean ([1]; Study 301, Full Analysis Set): −0.7
T-CGI-I, Difference at 48 weeks, LSM (SE), BC-TTM vs SoC ([1]; Study 301, Full Analysis Set): −0.3 (0.15)
UWDRS Part II (0-40), Change from Baseline at 48 weeks, Mean ([2]; Study 301, Full Analysis Set): −0.6
UWDRS Part II (0-40), Difference at 48 weeks, LSM (SE), BC-TTM vs SoC ([2]; Study 301, Full Analysis Set): 0.4 (0.51)
UWDRS Part III (0-175), Change from Baseline at 48 weeks, Mean ([2]; Study 301, Full Analysis Set): −2.20
UWDRS Part III (0-175), Difference at 48 weeks, LSM (SE), BC-TTM vs SoC ([2]; Study 301, Full Analysis Set): −0.09 (1.322)
UWDRS Part III functional subscale (0-10), Change from Baseline at 48 weeks, Mean ([2]; Study 301, Full Analysis Set): −0.147
UWDRS Part III functional subscale (0-10), Difference at 48 weeks, LSM (SE), BC-TTM vs SoC ([2]; Study 301, Full Analysis Set): −0.067 (0.1344)
UWDRS Part III-arising from chair (0-4), Change from Baseline at 48 weeks, Mean ([2]; Study 301, Full Analysis Set): 0.0
UWDRS Part III-arising from chair (0-4), Difference at 48 weeks, LSM (SE), BC-TTM vs SoC ([2]; Study 301, Full Analysis Set): 0.0 (0.06)
UWDRS Part III-gait (0-10), Change from Baseline at 48 weeks, Mean ([2]; Study 301, Full Analysis Set): −0.06
UWDRS Part III-gait (0-10), Difference at 48 weeks, LSM (SE), BC-TTM vs SoC ([2]; Study 301, Full Analysis Set): −0.15 (0.192)
UWDRS Part III-handwriting (0-4), Change from Baseline at 48 weeks, Mean ([2]; Study 301, Full Analysis Set): −0.1
UWDRS Part III-handwriting (0-4), Difference at 48 weeks, LSM (SE), BC-TTM vs SoC ([2]; Study 301, Full Analysis Set): −0.1 (0.09)
UWDRS Part III-speech (0-4), Change from Baseline at 48 weeks, Mean ([2]; Study 301, Full Analysis Set): −0.1
UWDRS Part III-speech (0-4), Difference at 48 weeks, LSM (SE), BC-TTM vs SoC ([2]; Study 301, Full Analysis Set): 0.0 (0.07)
key secondary efficacy endpoints, BC-TTM versus SoC ([2]; Study 301, after adjusting for multiplicity (hierarchical testing)): none of the key secondary efficacy endpoints were statistically significantly different
UWDRS Part III, Week 48 Change from Baseline, LSM Diff, BC-TTM vs SoC [2, 3]: −0.79
UWDRS Part III, Week 48 Change from Baseline, Mean [2, 3]: −2.86
UWDRS Part III, Week 48 Change from Baseline, Median [2, 3]: −2.00
UWDRS Part III, Week 48 Change from Baseline, LSM ([2]; Study 301, patients symptomatic at baseline, Cohort 1, MMRM): −2.68
UWDRS Part III, Week 48 Change from Baseline, LSM Diff (SE), BC-TTM vs SoC [2, 4]: 0.05 (5.041)
UWDRS Part III, Week 48 Change from Baseline, Mean [2, 4]: −3.10
UWDRS Part III, Week 48 Change from Baseline, Median [2, 4]: −3.00
UWDRS Part III, Week 48 Change from Baseline, LSM ([2]; Study 301, patients symptomatic at baseline, Cohort 2, MMRM): 1.43
UWDRS Part III, Week 48 Change from Baseline, LSM Diff, BC-TTM vs SoC [2, 5]: −0.33
UWDRS Part III, Week 48 Change from Baseline, Mean [2, 5]: −2.91
UWDRS Part III, Week 48 Change from Baseline, Median [2, 5]: −2.00
UWDRS Part III, Week 48 Change from Baseline, LSM ([2]; Study 301, patients symptomatic at baseline, Overall, MMRM): −1.54
